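Results reflect a 48-hour exposure of cells in 96-well plates to compound at five concentrations. GI50 marks 50% less growth. TGI: concentration producing complete growth inhibition.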
Key:
Assay in all cases: NCI anticancer screen, dose series, 48 h
SNB-75 CNS = tested on: SNB-75 CNS
786-0 renal = tested on: 786-0 renal
NCI-H23 lung = tested on: NCI-H23 lung
NCI-H226 lung = tested on: NCI-H226 lung
SK-MEL-28 melanoma = tested on: SK-MEL-28 melanoma
A549 NSCLC = tested on: A549 NSCLC
U251 CNS = tested on: U251 CNS
MOLT-4 leukemia = tested on: MOLT-4 leukemia
MDA-MB-231 breast = tested on: MDA-MB-231 breast
MDA-MB-435 = tested on: MDA-MB-435
BT-549 breast = tested on: BT-549 breast
HCC-2998 colon = tested on: HCC-2998 colon
SF-295 CNS = tested on: SF-295 CNS
UACC-257 melanoma = tested on: UACC-257 melanoma
COLO 205 colon = tested on: COLO 205 colon
SF-539 CNS = tested on: SF-539 CNS
NCI/ADR-RES ovarian = tested on: NCI/ADR-RES ovarian
NCI-H522 lung = tested on: NCI-H522 lung
UACC-62 melanoma = tested on: UACC-62 melanoma
T-47D breast = tested on: T-47D breast
IGROV1 ovarian = tested on: IGROV1 ovarian
RPMI-8226 leukemia = tested on: RPMI-8226 leukemia
UO-31 renal = tested on: UO-31 renal
CAKI-1 renal = tested on: CAKI-1 renal
NCI-H460 lung = tested on: NCI-H460 lung
SNB-19 CNS = tested on: SNB-19 CNS
A498 renal = tested on: A498 renal
LOX IMVI melanoma = tested on: LOX IMVI melanoma
ACHN renal = tested on: ACHN renal
MCF7 breast = tested on: MCF7 breast
K-562 leukemia = tested on: K-562 leukemia
MALME-3M melanoma = tested on: MALME-3M melanoma
PC-3 prostate = tested on: PC-3 prostate
OVCAR-8 ovarian = tested on: OVCAR-8 ovarian
SW-620 colon = tested on: SW-620 colon
HOP-62 NSCLC = tested on: HOP-62 NSCLC
EKVX NSCLC = tested on: EKVX NSCLC
TK-10 renal = tested on: TK-10 renal
M14 melanoma = tested on: M14 melanoma
OVCAR-5 ovarian = tested on: OVCAR-5 ovarian
KM12 colon = tested on: KM12 colon
OVCAR-3 ovarian = tested on: OVCAR-3 ovarian
SK-MEL-5 melanoma = tested on: SK-MEL-5 melanoma
OVCAR-4 ovarian = tested on: OVCAR-4 ovarian
CCRF-CEM leukemia = tested on: CCRF-CEM leukemia
SK-MEL-2 melanoma = tested on: SK-MEL-2 melanoma
HCT-116 colon = tested on: HCT-116 colon
HL-60(TB) leukemia = tested on: HL-60(TB) leukemia
SR leukemia = tested on: SR leukemia
HS 578T breast = tested on: HS 578T breast
SN12C renal = tested on: SN12C renal
HOP-92 NSCLC = tested on: HOP-92 NSCLC
SK-OV-3 ovarian = tested on: SK-OV-3 ovarian
RXF 393 renal = tested on: RXF 393 renal
SF-268 CNS = tested on: SF-268 CNS
DU-145 prostate = tested on: DU-145 prostate
HT29 colon = tested on: HT29 colon
HCT-15 colon = tested on: HCT-15 colon

Work on CN(C)CCCN=c1cc2c(=O)n(CCCN(C)C)c(=O)c3c(NCCCN(C)C)cc4c(O)n(CCCN(C)C)c(=O)c1c4c3-2 yielded a GI50 (SNB-75 CNS) of 1.25 µM, a TGI (SNB-75 CNS) of 3.68 µM and a GI50 (786-0 renal) of 6.36 µM. The TGI (786-0 renal) was 87.4 µM, the GI50 (NCI-H23 lung) was 5.39 µM and the TGI (NCI-H23 lung) was 25.5 µM. For the same molecule, the GI50 (NCI-H226 lung) was 0.258 µM, the TGI (NCI-H226 lung) was 4.12 µM and the GI50 (SK-MEL-28 melanoma) was 1.96 µM. It also gave a TGI (SK-MEL-28 melanoma) of 4.79 µM, a GI50 (A549 NSCLC) of 0.525 µM and a TGI (A549 NSCLC) of 2.63 µM. The GI50 (U251 CNS) was 0.418 µM, the TGI (U251 CNS) was 11 µM and the GI50 (MOLT-4 leukemia) was 7.11 µM. The TGI (MOLT-4 leukemia) was 98.8 µM, the GI50 (MDA-MB-231 breast) was 3.02 µM and the TGI (MDA-MB-231 breast) was 16.3 µM. For the same molecule, the GI50 (MDA-MB-435) was 3.41 µM, the TGI (MDA-MB-435) was 14.9 µM and the GI50 (BT-549 breast) was 11.2 µM. The TGI (BT-549 breast) was 31.4 µM, the GI50 (HCC-2998 colon) was 5.68 µM and the TGI (HCC-2998 colon) was 22.9 µM. The GI50 (SF-295 CNS) was 1.1 µM, the TGI (SF-295 CNS) was 9 µM and the GI50 (UACC-257 melanoma) was 2.19 µM. For the same molecule, the TGI (UACC-257 melanoma) was 7.35 µM, the GI50 (COLO 205 colon) was 1.03 µM and the TGI (COLO 205 colon) was 2.62 µM. It also gave a GI50 (SF-539 CNS) of 2.33 µM, a TGI (SF-539 CNS) of 11 µM and a GI50 (NCI/ADR-RES ovarian) of 12.3 µM. For the same molecule, the TGI (NCI/ADR-RES ovarian) was > 100 µM, the GI50 (NCI-H522 lung) was 0.781 µM and the TGI (NCI-H522 lung) was 2.76 µM. It also gave a GI50 (UACC-62 melanoma) of 1.75 µM, a TGI (UACC-62 melanoma) of 4.86 µM and a GI50 (T-47D breast) of 2.35 µM. The TGI (T-47D breast) was 16.9 µM, the GI50 (IGROV1 ovarian) was 2.34 µM and the TGI (IGROV1 ovarian) was 8.29 µM. For the same molecule, the GI50 (RPMI-8226 leukemia) was 4.18 µM, the TGI (RPMI-8226 leukemia) was 46.1 µM and the GI50 (UO-31 renal) was 2.92 µM. For the same molecule, the TGI (UO-31 renal) was 12.9 µM, the GI50 (CAKI-1 renal) was 6.21 µM and the TGI (CAKI-1 renal) was 29.4 µM. It also gave a GI50 (NCI-H460 lung) of 0.395 µM, a TGI (NCI-H460 lung) of 1.86 µM and a GI50 (SNB-19 CNS) of 1.51 µM. The TGI (SNB-19 CNS) was 19.7 µM, the GI50 (A498 renal) was 1.15 µM and the TGI (A498 renal) was 3.92 µM. It also gave a GI50 (LOX IMVI melanoma) of 2.01 µM, a TGI (LOX IMVI melanoma) of 8.36 µM and a GI50 (ACHN renal) of 0.736 µM. For the same molecule, the TGI (ACHN renal) was 12.4 µM, the GI50 (MCF7 breast) was 0.409 µM and the TGI (MCF7 breast) was 9.4 µM. For the same molecule, the GI50 (K-562 leukemia) was 2.13 µM, the TGI (K-562 leukemia) was > 100 µM and the GI50 (MALME-3M melanoma) was 1.27 µM. It also gave a TGI (MALME-3M melanoma) of 5.59 µM, a GI50 (PC-3 prostate) of 2.79 µM and a TGI (PC-3 prostate) of 34.1 µM. It also gave a GI50 (OVCAR-8 ovarian) of 1.03 µM, a TGI (OVCAR-8 ovarian) of 11.4 µM and a GI50 (SW-620 colon) of 0.79 µM. The TGI (SW-620 colon) was 15.6 µM, the GI50 (HOP-62 NSCLC) was 0.657 µM and the TGI (HOP-62 NSCLC) was 5.19 µM. It also gave a GI50 (EKVX NSCLC) of 3.06 µM, a TGI (EKVX NSCLC) of 21.3 µM and a GI50 (TK-10 renal) of 1.55 µM. The TGI (TK-10 renal) was 5.95 µM, the GI50 (M14 melanoma) was 5.87 µM and the TGI (M14 melanoma) was 19.7 µM. For the same molecule, the GI50 (OVCAR-5 ovarian) was 1.12 µM, the TGI (OVCAR-5 ovarian) was 4.09 µM and the GI50 (KM12 colon) was 2.36 µM. The TGI (KM12 colon) was 16.4 µM, the GI50 (OVCAR-3 ovarian) was 2.26 µM and the TGI (OVCAR-3 ovarian) was 7.88 µM. For the same molecule, the GI50 (SK-MEL-5 melanoma) was 3.03 µM, the TGI (SK-MEL-5 melanoma) was 11.2 µM and the GI50 (OVCAR-4 ovarian) was 1.83 µM. For the same molecule, the TGI (OVCAR-4 ovarian) was 7.9 µM, the GI50 (CCRF-CEM leukemia) was 5.84 µM and the TGI (CCRF-CEM leukemia) was 54.8 µM. It also gave a GI50 (SK-MEL-2 melanoma) of 1.37 µM, a TGI (SK-MEL-2 melanoma) of 5.08 µM and a GI50 (HCT-116 colon) of 0.582 µM. It also gave a TGI (HCT-116 colon) of 5.52 µM, a GI50 (HL-60(TB) leukemia) of 15.1 µM and a TGI (HL-60(TB) leukemia) of 60.5 µM. The GI50 (SR leukemia) was 8.39 µM, the TGI (SR leukemia) was 56 µM and the GI50 (HS 578T breast) was 1.13 µM. For the same molecule, the TGI (HS 578T breast) was 5.03 µM, the GI50 (SN12C renal) was 1.73 µM and the TGI (SN12C renal) was 30.9 µM. It also gave a GI50 (HOP-92 NSCLC) of 1.81 µM, a TGI (HOP-92 NSCLC) of 14.2 µM and a GI50 (SK-OV-3 ovarian) of 1.88 µM. The TGI (SK-OV-3 ovarian) was 6.93 µM, the GI50 (RXF 393 renal) was 1.77 µM and the TGI (RXF 393 renal) was 4.44 µM. The GI50 (SF-268 CNS) was 0.964 µM, the TGI (SF-268 CNS) was 9.33 µM and the GI50 (DU-145 prostate) was 2.5 µM. It also gave a TGI (DU-145 prostate) of 9.51 µM, a GI50 (HT29 colon) of 0.573 µM and a TGI (HT29 colon) of 3.58 µM. The GI50 (HCT-15 colon) was 4.3 µM and the TGI (HCT-15 colon) was 46.4 µM.
